Experimental data published in patent US10131663B2, “Chemical compounds” (AstraZeneca AB, priority 2016, dated 2018).
pIC50: −log10 of the molar value. Values after ≈ are worked out from the molar mass of the structure shown.

Legend:
hERG potassium channel = hERG potassium channel (Homo sapiens (Human), UniProt Q12809); experiment: hERG binding assay (automated patch clamp, CHO cells); assay type: cell-based; conditions: CHO cell line, Nanion Syncropatch 384PE
Outline: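 CHO cells on automated patch clamp; compounds tested in quadruplicate. Currents evoked every 15 s from −80 mV holding by a 500 ms step to 60 mV then 500 ms to −40 mV.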

[1] = Thermodynamic solubility (shake-flask); assay type: physicochemical; conditions: aqueous phosphate buffer, 25 °C, pH 7.4, aqueous buffer, thermodynamic from solid, aqueous phosphate buffer pH 7.4, 24 hours
Outline: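 Shake-flask method starting from 10 mM DMSO stocks, which are dried before use. Residue equilibrated 24 h at 25° C. in aqueous phosphate buffer, pH 7.4. Dissolved fraction separated and quantified by UPLC/MS/MS, with QC samples in each run.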

[2] = Human hepatocyte assay (metabolic stability); assay type: in vitro ADME; conditions: human hepatocytes
Protocol: The metabolic stability of compounds in human hepatocytes was assessed using the following protocol: • 1. Prepare 10 mM stock solutions of compound and control compounds in appropriate solvent (DMSO). Place incubation medium (L-15 Medium) in a 37° C. water bath, and allow warming for at least 15 minutes prior to use. • 2. Add 80 μL of acetonitrile to each well of the 96-well deep well plate (quenching plate). • 3. In a new 96-well plate, dilute the 10 mM test compounds and the control compounds to 100 μM by combining 198 μL of acetonitrile and 2 μL of 10 mM stock. • 4. Remove a vial of cryopreserved (less than −150° C.) human hepatocytes (LiverPool™ 10 Donor Human hepatocytes obtained from Celsis IVT. Chicago, Ill. (Product No. S01205)) from storage, ensuring that vials remain at cryogenic temperatures until thawing process ensues. As quickly as possible, thaw the cells by placing the vial in a 37° C. water bath and gently shaking the vials. Vials should remain in water bath until all ice crystals have dissolved and are no longer visible. After thawing is complete, spray vial with 70% ethanol, transfer the vial to a bio-safety cabinet. • 5. Open the vial and pour the contents into the 50 mL conical tube containing thawing medium. Place the 50 mL conical tube into a centrifuge and spin at 100 g for 10 minutes. […] Using Cellometer® Vision, count cells and determine the viable cell density. Cells with poor viability (<80% viability) are not acceptable for use. […] Transfer 247.5 μL of hepatocytes into each well of a 96-well cell culture plate. Place the plate on Eppendorf Thermomixer Comfort plate shaker to allow the hepatocytes to warm for 10 minutes. • 8. Add 2.5 μL of 100 μM test compound or control compounds into an incubation well containing cells, mix to achieve a homogenous suspension at 0.5 min, which when achieved, will define the 0.5 min time point. At the 0.5 min time, transfer 20 μL of incubated mixture to wells in a “Quenching plate” followed by vortexing. • 9. Incubate the plate at 37° C. at 900 rpm on an Eppendorf Thermomixer Comfort plate shaker. […] Centrifuge the quenching plates for 20 minutes at 4,000 rpm. 4 different compounds are pooled into one cassette and used for LC/MS/MS analysis.
All calculations were carried out using Microsoft Excel. Peak areas were determined from extracted ion chromatograms. In vitro intrinsic clearance (in vitro Clint, in […]) of parent compound was determined by regression analysis of the Ln percent parent disappearance vs. time curve.
V=incubation volume (0.25 mL);
N=number of hepatocytes per well (0.25×10^6 cells).

[3] = Human Caco-2 passive permeability A to B Papp; assay type: in vitro ADME; conditions: apical pH 6.5, basolateral pH 7.4, efflux inhibitor cocktail
Protocol: An automated assay was used to determine the passive permeability of compounds in Caco-2 cell monolayers carried out over 2 hours with an apical pH of 6.5 and basolateral pH of 7.4. The Caco-2 AB inhibition assay is carried out with chemical inhibition of the three major efflux transporters ABCB1 (P-gp), ABCG2 (BCRP) and ABCC2 (MRP2) in Caco-2 cells. Incubation of both apical and basolateral is carried out with a cocktail of inhibitors (50 μM quinidine, 20 μM sulfasalazine and 100 μM benzbromarone). Samples were analyzed through LC/MS/MS to estimate the apparent permeability coefficients (Papp) of compounds across Caco-2 cell monolayers and results are quoted in units of ×10^−6 cm/s.

hERG potassium channel, sequence (Q12809 whole entry): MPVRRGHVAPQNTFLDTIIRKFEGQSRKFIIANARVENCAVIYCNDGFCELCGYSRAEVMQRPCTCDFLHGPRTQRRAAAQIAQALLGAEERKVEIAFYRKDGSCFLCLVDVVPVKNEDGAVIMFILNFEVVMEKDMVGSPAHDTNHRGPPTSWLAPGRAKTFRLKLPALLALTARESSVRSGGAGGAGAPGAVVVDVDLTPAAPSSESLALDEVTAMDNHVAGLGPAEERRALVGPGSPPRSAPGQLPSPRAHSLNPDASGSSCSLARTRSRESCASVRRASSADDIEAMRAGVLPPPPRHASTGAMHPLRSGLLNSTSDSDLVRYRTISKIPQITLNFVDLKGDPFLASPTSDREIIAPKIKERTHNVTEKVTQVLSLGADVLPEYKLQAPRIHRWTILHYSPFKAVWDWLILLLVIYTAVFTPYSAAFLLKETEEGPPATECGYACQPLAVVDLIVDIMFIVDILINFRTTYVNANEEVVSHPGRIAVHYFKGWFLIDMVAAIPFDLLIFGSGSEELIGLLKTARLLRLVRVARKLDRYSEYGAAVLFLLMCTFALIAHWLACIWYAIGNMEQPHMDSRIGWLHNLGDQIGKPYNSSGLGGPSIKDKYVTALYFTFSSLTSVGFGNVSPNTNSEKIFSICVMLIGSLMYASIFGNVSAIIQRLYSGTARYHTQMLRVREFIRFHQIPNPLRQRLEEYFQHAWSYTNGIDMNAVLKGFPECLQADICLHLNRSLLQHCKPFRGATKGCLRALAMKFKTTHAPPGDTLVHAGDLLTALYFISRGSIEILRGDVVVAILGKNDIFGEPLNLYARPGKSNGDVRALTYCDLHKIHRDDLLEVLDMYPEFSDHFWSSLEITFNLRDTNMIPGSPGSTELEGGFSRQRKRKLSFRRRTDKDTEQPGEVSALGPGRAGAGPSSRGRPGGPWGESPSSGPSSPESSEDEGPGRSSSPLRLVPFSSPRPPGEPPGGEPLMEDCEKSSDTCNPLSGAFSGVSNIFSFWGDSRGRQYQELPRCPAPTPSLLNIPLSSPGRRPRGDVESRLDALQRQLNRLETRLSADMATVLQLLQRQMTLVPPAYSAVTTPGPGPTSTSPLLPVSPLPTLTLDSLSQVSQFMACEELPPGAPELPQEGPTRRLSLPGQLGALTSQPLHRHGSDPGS

SMILES: COCC(F)(F)CN1[C@H](c2ccc(NC3CN(CCCF)C3)cc2OC)c2ccc3[nH]ncc3c2C[C@H]1C [Example 1, N-(4-((6S,8R)-7-(2,2-difluoro-3-methoxypropyl)-8-methyl-6,7,8,9-tetrahydro-3H-pyrazolo[4,3-f]isoquinolin-6-yl)-3-methoxyphenyl)-1-(3-fluoropropyl)azetidin-3-amine]
- pIC50 (hERG potassium channel): 5.00
- solubility at 24 h [1]: 379 µM (≈ 201 µg/mL)
- hepatocyte CLint at 1 µM [2]: 11 µL/min/1e6 cells

SMILES: COCC(F)(F)CN1[C@H](c2ccc(NC3CN(CCCF)C3)cn2)c2ccc3[nH]ncc3c2C[C@H]1C [Example 2, 6-((6S,8R)-7-(2,2-difluoro-3-methoxypropyl)-8-methyl-6,7,8,9-tetrahydro-3H-pyrazolo[4,3-f]isoquinolin-6-yl)-N-(1-(3-fluoropropyl)azetidin-3-yl)pyridin-3-amine]
- pIC50 (hERG potassium channel): < 4.40
- solubility at 24 h [1]: 217 µM (≈ 109 µg/mL)
- hepatocyte CLint at 1 µM [2]: 6 µL/min/1e6 cells

SMILES: C[C@@H]1Cc2c(ccc3[nH]ncc23)[C@@H](c2ccc(NC3CN(CCCF)C3)cn2)N1CC1(F)CC1 [Example 3, 6-((6S,8R)-7-((1-fluorocyclopropyl)methyl)-8-methyl-6,7,8,9-tetrahydro-3H-pyrazolo[4,3-f]isoquinolin-6-yl)-N-(1-(3-fluoropropyl)azetidin-3-yl)pyridin-3-amine]
- pIC50 (hERG potassium channel): < 4.44
- solubility at 24 h [1]: > 941 µM
- hepatocyte CLint at 1 µM [2]: 5 µL/min/1e6 cells

SMILES: COc1cc(NC2CN(CCCF)C2)ccc1[C@@H]1c2ccc3[nH]ncc3c2C[C@@H](C)N1CC1(F)CC1 [Example 6, N-(4-((6S,8R)-7-((1-fluorocyclopropyl)methyl)-8-methyl-6,7,8,9-tetrahydro-3H-pyrazolo[4,3-f]isoquinolin-6-yl)-3-methoxyphenyl)-1-(3-fluoropropyl)azetidin-3-amine]
- pIC50 (hERG potassium channel): 5.04
- Papp at 2 h [3]: 1.8 ×10⁻⁶ cm/s
- solubility at 24 h [1]: > 947 µM
- hepatocyte CLint at 1 µM [2]: 2 µL/min/1e6 cells

SMILES: C[C@@H]1Cc2c(ccc3[nH]ncc23)[C@@H](c2ccc(NC3CN(CCCF)C3)cn2)N1CC(F)(F)CO [Example 16, 2,2-difluoro-3-((6S,8R)-6-(5-((1-(3-fluoropropyl)azetidin-3-yl)amino)pyridin-2-yl)-8-methyl-3,6,8,9-tetrahydro-7H-pyrazolo[4,3-f]isoquinolin-7-yl)propan-1-ol]
- pIC50 (hERG potassium channel): < 4.40
- Papp at 2 h [3]: 1.7 ×10⁻⁶ cm/s
- solubility at 24 h [1]: 982 µM (≈ 480 µg/mL)

SMILES: C[C@@H]1Cc2c(ccc3[nH]ncc23)[C@@H](c2ncc(NC3CN(CCCF)C3)cc2F)N1CC1(F)CC1 [Example 18, 5-fluoro-6-((6S,8R)-7-((1-fluorocyclopropyl)methyl)-8-methyl-6,7,8,9-tetrahydro-3H-pyrazolo[4,3-f]isoquinolin-6-yl)-N-(1-(3-fluoropropyl)azetidin-3-yl)pyridin-3-amine]
- pIC50 (hERG potassium channel): < 4.42
- solubility at 24 h [1]: 910 µM (≈ 441 µg/mL)
- hepatocyte CLint at 1 µM [2]: 3 µL/min/1e6 cells

SMILES: COc1cc(NC2CN(CCCF)C2)ccc1[C@@H]1c2ccc3[nH]ncc3c2C[C@@H](C)N1CC(C)(F)F [Example 19, N-(4-((6S,8R)-7-(2,2-difluoropropyl)-8-methyl-6,7,8,9-tetrahydro-3H-pyrazolo[4,3-f]isoquinolin-6-yl)-3-methoxyphenyl)-1-(3-fluoropropyl)azetidin-3-amine]
- pIC50 (hERG potassium channel): 5.27
- solubility at 24 h [1]: 152 µM (≈ 76.2 µg/mL)
- hepatocyte CLint at 1 µM [2]: 5 µL/min/1e6 cells

SMILES: COc1cc(NC2CN(CCCF)C2)ccc1[C@@H]1c2ccc3[nH]ncc3c2C[C@@H](C)N1CC(F)F [Example 21, N-(4-((6S,8R)-7-(2,2-difluoroethyl)-8-methyl-6,7,8,9-tetrahydro-3H-pyrazolo[4,3-f]isoquinolin-6-yl)-3-methoxyphenyl)-1-(3-fluoropropyl)azetidin-3-amine]
- pIC50 (hERG potassium channel): 5.28
- Papp at 2 h [3]: 14.1 ×10⁻⁶ cm/s
- solubility at 24 h [1]: 634 µM (≈ 309 µg/mL)
- hepatocyte CLint at 1 µM [2]: 6 µL/min/1e6 cells

SMILES: C[C@@H]1Cc2c(ccc3[nH]ncc23)[C@@H](c2ccc(NC3CN(CCCF)C3)cn2)N1CC(F)F [Example 25, 6-((6S,8R)-7-(2,2-difluoroethyl)-8-methyl-6,7,8,9-tetrahydro-3H-pyrazolo[4,3-f]isoquinolin-6-yl)-N-(1-(3-fluoropropyl)azetidin-3-yl)pyridin-3-amine]
- pIC50 (hERG potassium channel): 4.55
- Papp at 2 h [3]: 5.9 ×10⁻⁶ cm/s
- solubility at 24 h [1]: 964 µM (≈ 442 µg/mL)
- hepatocyte CLint at 1 µM [2]: 5 µL/min/1e6 cells

SMILES: C[C@@H]1Cc2c(ccc3[nH]ncc23)[C@@H](c2ccc(NC3CN(CCCF)C3)cc2)N1CC(F)(F)F [Example 27, 1-(3-Fluoropropyl)-N-(4-((6R,8R)-8-methyl-7-(2,2,2-trifluoroethyl)-6,7,8,9-tetrahydro-3H-pyrazolo[4,3-f]isoquinolin-6-yl)phenyl)azetidin-3-amine]
- pIC50 (hERG potassium channel): 5.10
- solubility at 24 h [1]: 229 µM (≈ 109 µg/mL)

SMILES: COc1cc(NC2CN(CCCF)C2)ccc1[C@@H]1c2ccc3[nH]ncc3c2C[C@@H](C)N1CC(F)(F)F [Example 28, 1-(3-fluoropropyl)-N-(3-methoxy-4-((6S,8R)-8-methyl-7-(2,2,2-trifluoroethyl)-6,7,8,9-tetrahydro-3H-pyrazolo[4,3-f]isoquinolin-6-yl)phenyl)azetidin-3-amine]
- pIC50 (hERG potassium channel): 5.11
- Papp at 2 h [3]: 24 ×10⁻⁶ cm/s
- solubility at 24 h [1]: 150 µM (≈ 75.8 µg/mL)
- hepatocyte CLint at 1 µM [2]: 5 µL/min/1e6 cells

SMILES: C[C@@H]1Cc2c(ccc3[nH]ncc23)[C@@H](c2ncc(NC3CN(CCCF)C3)cc2F)N1CC(F)(F)F [Example 30, 5-fluoro-N-(1-(3-fluoropropyl)azetidin-3-yl)-6-((6S,8R)-8-methyl-7-(2,2,2-trifluoroethyl)-6,7,8,9-tetrahydro-3H-pyrazolo[4,3-f]isoquinolin-6-yl)pyridin-3-amine]
- pIC50 (hERG potassium channel): < 4.48
- solubility at 24 h [1]: 754 µM (≈ 373 µg/mL)

SMILES: C[C@@H]1Cc2c(ccc3[nH]nc(F)c23)[C@@H](c2ncc(NC3CN(CCCF)C3)cc2F)N1CC(F)(F)F [Example 33, 5-Fluoro-6-((6S,8R)-1-fluoro-8-methyl-7-(2,2,2-trifluoroethyl)-6,7,8,9-tetrahydro-3H-pyrazolo[4,3-f]isoquinolin-6-yl)-N-(1-(3-fluoropropyl)azetidin-3-yl)pyridin-3-amine]
- pIC50 (hERG potassium channel): 4.85
- solubility at 24 h [1]: 466 µM (≈ 239 µg/mL)

SMILES: C[C@@H]1Cc2c(ccc3[nH]ncc23)[C@@H](c2ccc(NC3CN(CCCF)C3)cc2)N1CC(F)F [Example 48, N-(4-((6R,8R)-7-(2,2-difluoroethyl)-8-methyl-6,7,8,9-tetrahydro-3H-pyrazolo[4,3-f]isoquinolin-6-yl)phenyl)-1-(3-fluoropropyl)azetidin-3-amine]
- solubility at 24 h [1]: 582 µM (≈ 266 µg/mL)
- hepatocyte CLint at 1 µM [2]: 4 µL/min/1e6 cells

SMILES: COc1cc(NC2CN(CCCF)C2)ccc1[C@@H]1c2ccc3[nH]ncc3c2C[C@@H](C)N1CC(C)(C)F [Example 64, N-(4-((6S,8R)-7-(2-fluoro-2-methylpropyl)-8-methyl-6,7,8,9-tetrahydro-3H-pyrazolo[4,3-f]isoquinolin-6-yl)-3-methoxyphenyl)-1-(3-fluoropropyl)azetidin-3-amine]
- pIC50 (hERG potassium channel): 4.89
- solubility at 24 h [1]: 474 µM (≈ 236 µg/mL)
